Publication PMC5779043 (Journal of the American Heart Association: Cardiovascular …, 2017)

Experiments:
[1] = test system: intracerebral hemorrhage and traumatic brain injury; details: intravenous administration; cited from earlier work
[2] = test system: intraluminal occlusion of the middle cerebral artery (MCA); assay: Grip test after MCA occlusion; assay type: in vivo, Sprague-Dawley rats; details: 7 and 14 days after ischemia, 12 nmol/kg i.v. before MCA occlusion, n=8/group

| Substance | cerebral blood flow [1] | functional outcome [1] | inflammation and brain injury [1] | grip test vs control [2] |
| --- | --- | --- | --- | --- |
| nesiritide | improved the cerebral blood flow | better functional outcome | reduced the inflammation and brain injury | – |
| human BNP [hBNP] | – | – | – | no differences were observed |
